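Cells were grown in 96-well plates and exposed to each compound for 48 hours at five concentrations; endpoints were interpolated linearly between bracketing concentrations, or set to the highest concentration if not reached. Abbreviation: GI50, concentration required for 50% inhibition of growth.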 The source made the active and inactive calls. Cut-off read from the data, not from the text of the source: active = GI50 up to about 1.1 µM and inactive = higher.
Columns and labels:
Assay in all cases: NCI-60 cell line screen, 48 h
MDA-N = test system: MDA-N
U-251 = test system: U-251
HT-29 = test system: HT-29
HCT-15 = test system: HCT-15
SR = test system: SR
HCC 2998 = test system: HCC 2998
RPMI-8226 = test system: RPMI-8226
HOP-62 = test system: HOP-62
COLO 205 = test system: COLO 205
MOLT-4 = test system: MOLT-4
SF-539 = test system: SF-539
IGROV-1 = test system: IGROV-1
A549 = test system: A549
OVCAR-4 = test system: OVCAR-4
SK-MEL-2 = test system: SK-MEL-2
UO-31 = test system: UO-31
OVCAR-3 = test system: OVCAR-3
ACHN = test system: ACHN
NCI-H226 = test system: NCI-H226

CCOC(=O)CCCOc1cc(-c2ccccc2F)nc2cc3c(cc12)OCO3
GI50 (MDA-N): 88.7 µM (inactive)
GI50 (U-251): 95.9 µM (inactive)
GI50 (HT-29): 43.7 µM (inactive)
GI50 (HCT-15): 3.29 µM
GI50 (SR): 32 µM (inactive)
GI50 (HCC 2998): 5.82 µM (inactive)
GI50 (RPMI-8226): 28.4 µM (inactive)
GI50 (HOP-62): > 100 µM (inactive)
GI50 (COLO 205): > 100 µM (inactive)
GI50 (MOLT-4): 27.3 µM (inactive)
GI50 (SF-539): > 100 µM (inactive)
GI50 (IGROV-1): 24.6 µM (inactive)
GI50 (A549): > 100 µM (inactive)
GI50 (OVCAR-4): 3.71 µM (inactive)
GI50 (SK-MEL-2): > 100 µM (inactive)

CC#CC#C/C=C1/O[C@]2(CCC(OC(=O)CC(C)C)CO2)[C@@H]2O[C@H]12 (some centres not stated)
GI50 (MDA-N): 22.5 µM (inactive)
GI50 (U-251): 21.7 µM (inactive)
GI50 (HT-29): 18.2 µM (inactive)
GI50 (HCT-15): 21 µM
GI50 (UO-31): 18.9 µM (inactive)
GI50 (SR): 28.1 µM (inactive)
GI50 (HCC 2998): 19.5 µM (inactive)
GI50 (RPMI-8226): 19.7 µM (inactive)
GI50 (OVCAR-3): 21.5 µM (inactive)
GI50 (HOP-62): 42.7 µM (inactive)
GI50 (MOLT-4): 18.7 µM (inactive)
GI50 (IGROV-1): 91.4 µM (inactive)
GI50 (A549): 39.6 µM (inactive)
GI50 (OVCAR-4): 29.6 µM (inactive)
GI50 (SK-MEL-2): 21.6 µM (inactive)
GI50 (ACHN): 21 µM (inactive)

N#Cc1ccccc1NC(=O)C(O)C(O)C(O)C(O)C=O (configuration not stated)
GI50 (MDA-N): > 100 µM (inactive)
GI50 (U-251): > 100 µM (inactive)
GI50 (HT-29): > 100 µM (inactive)
GI50 (HCT-15): > 100 µM
GI50 (UO-31): > 100 µM (inactive)
GI50 (SR): > 100 µM (inactive)
GI50 (HCC 2998): > 100 µM (inactive)
GI50 (OVCAR-3): > 100 µM (inactive)
GI50 (COLO 205): > 100 µM (inactive)
GI50 (MOLT-4): > 100 µM (inactive)
GI50 (SF-539): > 100 µM (inactive)
GI50 (IGROV-1): > 100 µM (inactive)
GI50 (A549): > 100 µM (inactive)
GI50 (OVCAR-4): > 100 µM (inactive)
GI50 (NCI-H226): > 100 µM (inactive)
GI50 (SK-MEL-2): > 100 µM (inactive)
GI50 (ACHN): > 100 µM (inactive)

O=S1(=O)N=C(SCc2ccccc2)N(c2ccccc2)c2ccncc21
GI50 (MDA-N): 27.4 µM (inactive)
GI50 (U-251): 39.2 µM (inactive)
GI50 (HT-29): 43.9 µM (inactive)
GI50 (HCT-15): 26.5 µM
GI50 (UO-31): 3.83 µM (inactive)
GI50 (SR): 21.2 µM (inactive)
GI50 (HCC 2998): 38.7 µM (inactive)
GI50 (OVCAR-3): 31.9 µM (inactive)
GI50 (HOP-62): 31.3 µM (inactive)
GI50 (COLO 205): 19.7 µM (inactive)
GI50 (MOLT-4): 17.7 µM (inactive)
GI50 (SF-539): 66.2 µM (inactive)
GI50 (A549): 32.6 µM (inactive)
GI50 (OVCAR-4): 23.3 µM (inactive)
GI50 (NCI-H226): 37.6 µM (inactive)
GI50 (SK-MEL-2): 34.3 µM (inactive)
GI50 (ACHN): 57.7 µM (inactive)

CC(C)=CCC[C@@H](C)C1=C(O)C(=O)C(C)=C(Nc2ccccc2F)C1=O
GI50 (MDA-N): 23.1 µM (inactive)
GI50 (U-251): 9.33 µM (inactive)
GI50 (HT-29): 33.3 µM (inactive)
GI50 (HCT-15): 5.2 µM
GI50 (UO-31): 12.9 µM (inactive)
GI50 (SR): 28.1 µM (inactive)
GI50 (HCC 2998): 48.1 µM (inactive)
GI50 (RPMI-8226): 8.26 µM (inactive)
GI50 (OVCAR-3): 4.1 µM (inactive)
GI50 (HOP-62): 11.6 µM (inactive)
GI50 (COLO 205): 23.4 µM (inactive)
GI50 (MOLT-4): 5.68 µM (inactive)
GI50 (IGROV-1): 32.6 µM (inactive)
GI50 (A549): 17.2 µM (inactive)
GI50 (OVCAR-4): 15 µM (inactive)
GI50 (NCI-H226): 17.9 µM (inactive)
GI50 (SK-MEL-2): 18.7 µM (inactive)
GI50 (ACHN): 13.8 µM (inactive)

CCOC(=O)CCC(C(=O)OCC)n1nnc2ccc(Nc3c(C)[n+]([O-])c4cc(F)c(OCC)cc4[n+]3[O-])cc21 (configuration not stated)
GI50 (MDA-N): 46.3 µM (inactive)
GI50 (U-251): 63.8 µM (inactive)
GI50 (HT-29): 56.8 µM (inactive)
GI50 (HCT-15): 52.8 µM
GI50 (UO-31): 54 µM (inactive)
GI50 (SR): 36.5 µM (inactive)
GI50 (RPMI-8226): 21.5 µM (inactive)
GI50 (OVCAR-3): 25.4 µM (inactive)
GI50 (HOP-62): > 100 µM (inactive)
GI50 (COLO 205): 28.2 µM (inactive)
GI50 (MOLT-4): 44.7 µM (inactive)
GI50 (SF-539): 24.8 µM (inactive)
GI50 (IGROV-1): 48.1 µM (inactive)
GI50 (A549): 77.8 µM (inactive)
GI50 (OVCAR-4): 36.4 µM (inactive)
GI50 (NCI-H226): 48.5 µM (inactive)
GI50 (SK-MEL-2): 32.3 µM (inactive)
GI50 (ACHN): 51.8 µM (inactive)

CSC(SC)=C1CC(=O)Nc2ccccc2C1=O
GI50 (MDA-N): 40.6 µM (inactive)
GI50 (U-251): 40.3 µM (inactive)
GI50 (HT-29): > 100 µM (inactive)
GI50 (HCT-15): 36.1 µM
GI50 (UO-31): 55.1 µM (inactive)
GI50 (SR): 27.5 µM (inactive)
GI50 (HCC 2998): > 100 µM (inactive)
GI50 (OVCAR-3): 45 µM (inactive)
GI50 (HOP-62): > 100 µM (inactive)
GI50 (COLO 205): 58.2 µM (inactive)
GI50 (MOLT-4): 26.1 µM (inactive)
GI50 (SF-539): 58.7 µM (inactive)
GI50 (IGROV-1): 35.9 µM (inactive)
GI50 (A549): > 100 µM (inactive)
GI50 (OVCAR-4): > 100 µM (inactive)
GI50 (NCI-H226): > 100 µM (inactive)
GI50 (SK-MEL-2): 53.3 µM (inactive)
GI50 (ACHN): > 100 µM (inactive)

C=CCNc1ccc(C)cc1
GI50 (MDA-N): > 100 µM (inactive)
GI50 (U-251): > 100 µM (inactive)
GI50 (HT-29): > 100 µM (inactive)
GI50 (HCT-15): > 100 µM
GI50 (UO-31): 35 µM (inactive)
GI50 (SR): > 100 µM (inactive)
GI50 (HCC 2998): > 100 µM (inactive)
GI50 (OVCAR-3): > 100 µM (inactive)
GI50 (COLO 205): > 100 µM (inactive)
GI50 (MOLT-4): > 100 µM (inactive)
GI50 (A549): > 100 µM (inactive)
GI50 (OVCAR-4): > 100 µM (inactive)
GI50 (NCI-H226): > 100 µM (inactive)
GI50 (ACHN): > 100 µM (inactive)

COc1ccc(C2=NNC(c3cc4cc(Br)ccc4nc3Cl)C2)cc1 (configuration not stated)
GI50 (MDA-N): 6.31 µM (inactive)
GI50 (HT-29): 14.6 µM (inactive)
GI50 (UO-31): 13.1 µM (inactive)
GI50 (SR): 0.185 µM (active)
GI50 (HCC 2998): 11.5 µM (inactive)
GI50 (RPMI-8226): 5.74 µM (inactive)
GI50 (OVCAR-3): 18.2 µM (inactive)
GI50 (COLO 205): 11.7 µM (inactive)
GI50 (MOLT-4): 3.82 µM (inactive)
GI50 (IGROV-1): 9.42 µM (inactive)
GI50 (OVCAR-4): 15.3 µM (inactive)
GI50 (NCI-H226): 0.0107 µM (active)
GI50 (SK-MEL-2): 11.8 µM (inactive)
GI50 (ACHN): 13.2 µM (inactive)

OCCCCCNc1c2ccccc2nc2ccccc12
GI50 (MDA-N): 2.54 µM (inactive)
GI50 (U-251): 3.73 µM (inactive)
GI50 (HT-29): 1.44 µM (inactive)
GI50 (HCT-15): 3.57 µM
GI50 (UO-31): 2.38 µM (inactive)
GI50 (SR): 1.37 µM (inactive)
GI50 (HCC 2998): 1.01 µM (active)
GI50 (RPMI-8226): 3.44 µM (inactive)
GI50 (OVCAR-3): 3.86 µM (inactive)
GI50 (HOP-62): 1.38 µM (inactive)
GI50 (COLO 205): 1.53 µM (inactive)
GI50 (MOLT-4): 2.4 µM (inactive)
GI50 (SF-539): 2.75 µM (inactive)
GI50 (IGROV-1): 3.03 µM (inactive)
GI50 (A549): 2.65 µM (inactive)
GI50 (OVCAR-4): 2.31 µM (inactive)
GI50 (SK-MEL-2): 2.62 µM (inactive)
GI50 (ACHN): 0.818 µM (active)

CCc1nnc(-n2c(C)nc3cc(Cl)ccc3c2=O)s1
GI50 (MDA-N): 13.3 µM (inactive)
GI50 (U-251): 42.7 µM (inactive)
GI50 (HT-29): 35.2 µM (inactive)
GI50 (HCT-15): 44.1 µM
GI50 (UO-31): 31.6 µM (inactive)
GI50 (SR): 34.5 µM (inactive)
GI50 (HCC 2998): 49.8 µM (inactive)
GI50 (OVCAR-3): 18.7 µM (inactive)
GI50 (HOP-62): 45.4 µM (inactive)
GI50 (COLO 205): 24.4 µM (inactive)
GI50 (MOLT-4): 26.3 µM (inactive)
GI50 (IGROV-1): 40.7 µM (inactive)
GI50 (A549): 31 µM (inactive)
GI50 (OVCAR-4): 28.8 µM (inactive)
GI50 (NCI-H226): 43.1 µM (inactive)
GI50 (ACHN): 33.8 µM (inactive)

CCOC(=O)C1(C(=O)OCC)COS(=O)OC1
GI50 (MDA-N): 35.5 µM (inactive)
GI50 (U-251): > 100 µM (inactive)
GI50 (HT-29): > 100 µM (inactive)
GI50 (HCT-15): 19.2 µM
GI50 (UO-31): 70.3 µM (inactive)
GI50 (SR): 17.8 µM (inactive)
GI50 (HCC 2998): 47.6 µM (inactive)
GI50 (OVCAR-3): 19.9 µM (inactive)
GI50 (COLO 205): 23.8 µM (inactive)
GI50 (MOLT-4): 16.4 µM (inactive)
GI50 (A549): > 100 µM (inactive)
GI50 (OVCAR-4): 20.7 µM (inactive)
GI50 (NCI-H226): 20.8 µM (inactive)
GI50 (ACHN): 32.6 µM (inactive)

NC(CCCCP(=O)(O)O)C(=O)O (configuration not stated)
GI50 (MDA-N): > 100 µM (inactive)
GI50 (U-251): > 100 µM (inactive)
GI50 (HT-29): > 100 µM (inactive)
GI50 (HCT-15): > 100 µM
GI50 (UO-31): > 100 µM (inactive)
GI50 (SR): > 100 µM (inactive)
GI50 (HCC 2998): > 100 µM (inactive)
GI50 (RPMI-8226): > 100 µM (inactive)
GI50 (OVCAR-3): > 100 µM (inactive)
GI50 (COLO 205): > 100 µM (inactive)
GI50 (MOLT-4): > 100 µM (inactive)
GI50 (SF-539): > 100 µM (inactive)
GI50 (IGROV-1): > 100 µM (inactive)
GI50 (A549): > 100 µM (inactive)
GI50 (OVCAR-4): > 100 µM (inactive)
GI50 (SK-MEL-2): > 100 µM (inactive)
GI50 (ACHN): > 100 µM (inactive)
